Assay [1] addresses T1, PI3Kβ (Homo sapiens, UniProt P42338).
T1 construct: made in house
Description: HTRF in vitro profiling assay for PI3K inhibition (beta isoform). It counts as biochemical. As to conditions: 200 pM enzyme, 100 uM ATP, 10 uM PIP2, 150 mM NaCl, corrected pIC50, single run or average of two or more runs; for IC50: read-out: PI3K b pIC50 (converted). From the text:
The PI3-Kinase profiling assays were developed to measure the compound-dependent inhibition of the alpha, beta, delta, and gamma isoforms of PI3Kin an in vitro catalytic assay. This assay was developed and optimized from a kit produced by Upstate (Millipore catalog #33-017). Briefly, this procedure utilizes a pre-formed HTRF (Homogeneous Time-Resolved Fluorescence energy transfer) complex between four binding partners: 1) biotinylated PIP3, 2) GST tagged pleckstrin homology (PH) domain, 3) Europium labeled anti-GST monoclonal antibody, and 4) Streptavidin-Allophycocyanin (APC). The native PIP3 produced by PI 3-Kinase activity displaces biotin-PIP3 from the PH domain, resulting in the dissociation of the HTRF complex and a decrease in the fluorescence signal. The format of this assay is the same for all 4 isoforms of PI3K; the differences lie in the concentration of enzyme used to achieve the most robust signal. The alpha and delta assays are run at 400 pM enzyme; the beta assay is at 200 pM enzyme and the gamma assay is run at 1 nM enzyme. In addition, the alpha, beta and delta assays are run with 150 mM NaCl while the gamma assay is run in the absence of NaCl. The ATP concentration is 100 uM in the alpha, beta, and delta assays and 15 uM ATP in the gamma assay. All reactions are run at 10 uM PIP2
Compounds were serially diluted (3-fold in 100% DMSO) across a 384-well polypropylene mother plate from column 1 to column 12 and column 13 to column 24, to yield 11 concentrations for each test compound. Columns 6 and 18 contain only DMSO. Once titrations were made, 0.054 was transferred to a 384-well low-volume assay plate (Greiner 784076). This assay plate contained three pharmacological controls (known PI3K inhibitors) and 3 assay controls: (1) Enzyme without inhibitor; (2) Buffer minus enzyme, and (3) Buffer minus enzyme plus native PIP3. DMSO was stamped into all wells of columns 6 and 18. PIP3 was added at 40 μM in 1× Reaction buffer (1 μL of 200 μM PIP3) to alternating rows of column 18 (wells 18 B, D, F, H, J, L, N, P). The no-enzyme control reactions were run in wells 18 A, C, E, G, I, K, M, O (0.14 of 100% DMSO).
The PI3-Kinase profiling assay was optimized using the HTRF kit provided by Upstate (Millipore). The assay kit contained seven reagents: 1) 4× Reaction Buffer; 2) native PIP2 (substrate); 3) Stop A (EDTA); 4) Stop B (Biotin-PIP3); 5) Detection Mix A (Streptavidin-APC); 6) Detection Mix B (Eu-labeled Anti-GST plus GST-tagged PH-domain); 7) Detection Mix C (KF). In addition, the following items were obtained or purchased: PI3Kinase (prepared by GSK BR&AD), dithiothreitol (Sigma, D-5545), Adenosine-5′-triphosphate (ATP, Teknova cat. #A0220), native PIP3 (1,2-dioctanoyl-sn-glycero-3-[phosphoinositil-3,4,5-triphosphate]tetraammonium salt (Avanti polar lipids, 850186P), DMSO (Sigma, 472301).
PI3Kinase Reaction Buffer was prepared by diluting the stock 1:4 with de-ionized water. Freshly prepared DTT was added at a final concentration of 5 mM on the day of use. Enzyme addition and compound pre-incubation were initiated by the addition of 2.5 μL of PI3K (at twice its final concentration) in 1× reaction buffer to all wells using a Multidrop Combi. Plates were incubated at room temperature for 15 minutes. Reactions were initiated by addition of 2.5 μL of 2× substrate solution (PIP2 and ATP in 1× reaction buffer) using a Multidrop Combi. Plates were incubated at room temperature for one hour. Reactions were quenched by the addition of 2.5 μL of stop solution (Stop A and Stop B pre-mixed at a ratio of 5:1, respectively) to all wells using the Multidrop Combi. […]
Background: In TR-FRET formats the signal depends on donor and acceptor labels being close together.

For assay [2], the system named is phosphorylation of AKT (Ser473) in MDA-MB-468 tumor cells. As to the kind of experiment: Inhibition of phosphorylation of AKT in PTEN deficient tumor cell line MDA-MB-468 (MSD Ser473-AKT). The conditions noted are these: Homo sapiens, 0.5 h; MDA-MB-468 breast cancer cells, 30 minutes compound treatment, Ser473-pAKT normalized to total AKT. It counts as cell-based. The protocol:
Compounds were evaluated for their ability to inhibit downstream phosphorylation of AKT in MDA-MB-468 tumor cells. Breast cancer cells were plated, incubated for approximately 16-20 hours and then treated with compound for 30 minutes. Final DMSO concentration on all cells was 0.15%. The cells were washed with Tris buffer and lysed in MesoScale Discovery (MSD) lysis buffer containing protease and phosphatase inhibitors (included in MSD kit). MSD Ser473-AKT duplex plates (Cat #MS6000) were used according to the manufacturer's instructions and plates were read on a SECTOR™ Imager 6000 using MSD Workbench software. For analysis of the Ser473-pAKT concentration response curves, the data was normalized using the corresponding total AKT value (sum of pAKT and AKT signal) and plotted as the percent of the DMSO-treated control values. The data was fit in Graphpad Prism version 4 for Windows (Graphpad Software, San Diego, Calif.).

The subject of assay [3] is MDA-MB-468 cells. As to the kind of experiment: Cell growth inhibition in PTEN-deficient cell line MDA-MB-468 (anchorage independent, Alamar Blue). Format: cell-based. As to conditions: Homo sapiens, 144 h, MDA-MB-468, anchorage independent conditions, 6 days incubation, read-out: Prolif EC50 (nM) MDA-MB-468. On the procedure: PTEN deficient tumor cell lines (MDA-MB-468) were cultured generally according to instructions supplied by cell culture supplier American Type Culture Collection, Manassas, Va., with 10% fetal bovine serum at 5% CO2 and 37° C. Cells were seeded into either a T-75 or a T-175 flask 3-4 days prior to 96-well assay plating such that the flasks were approximately 70-80% confluent of the time of harvest. Cells were harvested using 0.25% trypsin-EDTA (Invitrogen #25200056). Trypan Blue exclusion staining was used to determine cell number.
Viable cells were plated in clear, flat bottom 96-well plates (BD #353075) under anchorage independent conditions at 2,000-10,000 cells per well depending on the cell line. To generate anchorage independent growth conditions, a 5% agar stock solution in water was made and autoclaved to melt and sterilize. From the 5% agar solution, a 0.6% agar/media+10% fetal bovine serum (FBS) solution was made to generate a bottom agar layer in the plates to prevent cell attachment. Seventy five microliters per well of the 0.6% agar-media solution was added to the plates. After solidification, a cell solution of 266,870 to 1, 334,022 cells (depending on the cell line) in 10 ml of 0.3% agar/media+10% FBS was made and 75 μl of the cell/media/agar suspension was added to the plates. After the cell layer solidified, 50 μl of media+10% FBS was added to the top of the cells. A 0.3% Brij 35 (Sigma B4184) solution in media+10% FBS was added to column 12 as a background subtraction control. The cells were incubated overnight at 5% CO2 and 37° C. The next day one plate of cells was processed at the time of compound addition to quantify the starting number of cells (T=0 or T0).
To generate the compound titration plates, 15 μl of a 2 mM or 20 μl of a 20 mM solution of the compound of example 31 was diluted in clear bottom polypropylene 96-well plate (BD #351190) using a 10 point, 3-fold titration or a 20 point 2-fold titration, respectively. Three hundred microliters of media was added to the compound dilutions. Ten microliters per well of the serial dilutions was added to the cells and the plates incubated for 6 days at 5% CO2 and 37° C. The final concentration of DMSO in all wells was 0.15% and the highest final concentration of the compound of example 31 was 3.7 μM or 30.7 μM.
Following the 6-day incubation, 20 μl of Alamar Blue (Invitrogen #DAL1100) was added to the cells, incubated at 5% CO2 and 37° C. for 6 hours and the plates read on a Spectramax (Gemini EM) at 530 nm (excitation) and 590 nm (emission) with the auto cut-off disabled. For analysis of cell growth inhibition dose response curves, the data was plotted as the percent of the DMSO-treated control samples (DMSO samples set to 100%). The cellular response was determined for compounds and control compounds by fitting the concentration response with a 4 parameter curve fit using XLfit software and determining the concentration that inhibits 50% of the Ymax-Ymin window (EC50). The EC50 is the midpoint of active compound effect window (between Ymax plateau and Ymin plateau of compound) and represents the concentration of the compound of example 31 where 50% of its maximal effect is observed. Values from wells containing 0.3% Brij 35 (under anchorage independent conditions) were subtracted from all samples for background correction. The compounds listed in Table 3 were tested generally according to the assays described herein. […]
(In general: The colour change of resazurin is a common sign of viable cells or microbes.)

Molecules are shown by their SMILES.

Usually EC50 stands for the concentration needed to bring the measured effect to its halfway point.

T1 sequence (P42338 whole entry): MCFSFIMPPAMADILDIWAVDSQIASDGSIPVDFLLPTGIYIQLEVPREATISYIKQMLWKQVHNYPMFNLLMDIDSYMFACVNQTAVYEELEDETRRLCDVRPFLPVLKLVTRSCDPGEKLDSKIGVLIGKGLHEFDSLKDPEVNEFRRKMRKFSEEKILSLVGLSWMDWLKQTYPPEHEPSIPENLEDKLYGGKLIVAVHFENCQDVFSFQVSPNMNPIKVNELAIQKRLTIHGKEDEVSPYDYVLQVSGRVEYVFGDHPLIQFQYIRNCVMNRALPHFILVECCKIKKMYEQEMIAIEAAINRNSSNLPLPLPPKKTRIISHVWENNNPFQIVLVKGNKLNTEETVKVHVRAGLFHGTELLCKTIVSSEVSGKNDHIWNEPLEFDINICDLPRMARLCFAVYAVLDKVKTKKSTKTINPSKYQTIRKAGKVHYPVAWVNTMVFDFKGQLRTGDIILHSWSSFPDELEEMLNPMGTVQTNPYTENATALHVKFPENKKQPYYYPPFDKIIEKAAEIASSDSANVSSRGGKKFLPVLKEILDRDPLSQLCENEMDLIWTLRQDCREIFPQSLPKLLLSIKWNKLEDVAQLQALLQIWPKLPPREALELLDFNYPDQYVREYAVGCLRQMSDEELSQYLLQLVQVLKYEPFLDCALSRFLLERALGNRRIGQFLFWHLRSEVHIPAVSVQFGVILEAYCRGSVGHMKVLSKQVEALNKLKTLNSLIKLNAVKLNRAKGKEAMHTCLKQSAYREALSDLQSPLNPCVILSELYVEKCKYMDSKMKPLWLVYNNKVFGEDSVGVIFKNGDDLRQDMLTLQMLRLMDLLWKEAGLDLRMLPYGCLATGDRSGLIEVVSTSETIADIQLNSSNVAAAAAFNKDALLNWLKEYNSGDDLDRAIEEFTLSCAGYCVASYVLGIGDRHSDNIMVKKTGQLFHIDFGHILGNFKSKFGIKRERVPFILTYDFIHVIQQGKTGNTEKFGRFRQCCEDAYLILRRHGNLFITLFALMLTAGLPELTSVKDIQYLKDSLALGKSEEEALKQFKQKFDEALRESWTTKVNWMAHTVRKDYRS
T1 sequence (P27986 whole entry partner): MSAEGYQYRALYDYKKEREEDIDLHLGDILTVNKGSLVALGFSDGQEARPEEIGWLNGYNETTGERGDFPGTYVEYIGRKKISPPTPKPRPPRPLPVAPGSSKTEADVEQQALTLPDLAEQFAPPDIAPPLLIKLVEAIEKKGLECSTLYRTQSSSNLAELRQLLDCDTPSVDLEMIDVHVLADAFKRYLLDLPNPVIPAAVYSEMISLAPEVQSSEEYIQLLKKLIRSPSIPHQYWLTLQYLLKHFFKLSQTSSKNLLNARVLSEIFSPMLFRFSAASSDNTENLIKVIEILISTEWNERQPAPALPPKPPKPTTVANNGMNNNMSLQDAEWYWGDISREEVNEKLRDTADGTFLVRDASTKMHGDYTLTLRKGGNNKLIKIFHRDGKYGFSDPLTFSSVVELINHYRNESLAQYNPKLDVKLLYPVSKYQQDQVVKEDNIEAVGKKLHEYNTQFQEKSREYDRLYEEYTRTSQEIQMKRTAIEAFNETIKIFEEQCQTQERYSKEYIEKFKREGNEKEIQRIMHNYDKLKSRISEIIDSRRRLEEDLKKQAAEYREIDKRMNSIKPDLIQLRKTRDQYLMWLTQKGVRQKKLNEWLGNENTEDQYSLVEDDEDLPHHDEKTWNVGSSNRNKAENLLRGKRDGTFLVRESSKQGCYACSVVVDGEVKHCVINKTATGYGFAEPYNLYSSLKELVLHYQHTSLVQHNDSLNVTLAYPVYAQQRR

As for `Cc1c(Cn2c(C)nc3c(C(=O)O)cc(N4CCOCC4)nc32)cccc1C(F)(F)F` [Example 3, 2-methyl-3-(2-methyl-3-(trifluoromethyl)benzyl)-5-morpholino-3H-imidazo[4,5-b]pyridine-7-carboxylic acid], the “PI3K b pIC50” value in assay [1] came to 8.3. Moreover, the IC50 in assay [2] turned out to be 436 nM. For the same molecule, the EC50 in assay [3] was found to be 41 nM.
`Oc1cc(N2CCOCC2)nc2c1ncn2Cc1cccc2ccccc12` [Example 2, 5-morpholino-3-(naphthalen-1-ylmethyl)-3H-imidazo[4,5-b]pyridin-7-ol]: the results for the IC50 in assay [1] and in assay [2] were 0.00316 µM and 578 nM, respectively.
For `Cc1nc2ccc(N3CCOCC3)nc2n1Cc1cccc2ccccc12` [Example 7, 4-(2-methyl-3-(naphthalen-1-ylmethyl)-3H-imidazo[4,5-b]pyridin-5-yl)morpholine], in that order: 0.00631 µM and 126 nM.
For the molecule `Cc1c(Cn2cnc3c(O)cc(N4CCOCC4)nc32)cccc1C(F)(F)F` [Example 1, 3-(2-methyl-3-(trifluoromethyl)benzyl)-5-morpholino-3H-imidazo[4,5-b]pyridin-7-ol], the results for the IC50 in assay [1] and in assay [2] were 0.00158 µM and 477 nM, respectively.
Regarding `Cc1nc2c(C(=O)O)cc(N3CCOCC3)nc2n1Cc1cccc(Cl)c1Cl` [Example 4, 3-(2,3-dichlorobenzyl)-2-methyl-5-morpholino-3H-imidazo[4,5-b]pyridine-7-carboxylic acid], the “PI3K b pIC50” value in assay [1] is 8.3. In assay [2], this molecule displayed an IC50 of 41.4 nM. Moreover, the EC50 in assay [3] was determined as 153 nM.
In the case of `Cc1nc2ccc(N3CCOCC3)nc2n1Cc1cccc(Cl)c1Cl` [Example 8, 4-(3-(2,3-dichlorobenzyl)-2-methyl-3H-imidazo[4,5-b]pyridin-5-yl)morpholine], the IC50 in assay [1] was 0.0398 µM; in assay [2] it was 406 nM. Further, the EC50 in assay [3] was 1500 nM.
The like results for `Cc1nc2c(C(=O)O)cc(N3CCOCC3)nc2n1Cc1cccc2ccccc12` [Example 6, 2-methyl-5-morpholino-3-(naphthalen-1-ylmethyl)-3H-imidazo[4,5-b]pyridine-7-carboxylic acid] were, in that order, 0.00158 µM, 75.3 nM and 66.5 nM.
In the case of `Cc1c(Cl)cccc1Cn1c(C)nc2c(C(=O)O)cc(N3CCOCC3)nc21` [Example 5, 3-(3-chloro-2-methylbenzyl)-2-methyl-5-morpholino-3H-imidazo[4,5-b]pyridine-7-carboxylic acid], the “PI3K b pIC50” value in assay [1] was 8.8. The molecule further returned an IC50 in assay [2] of 15.9 nM. Moreover, the concentration giving a half-maximal response (EC50) in assay [3] amounted to 18.1 nM.

For the origin of these results see US8906910B2, “Imidazopyridine derivatives as PI3 kinase” (GlaxoSmithKline LLC, priority 2011, dated 2014).
